One data set can be described thus: in vivo. The settings on record: rat, iv. The protocol:
In addition to the studies discussed above a bioavailability and pharmacokinetic study of TGFβ and ATRA was conducted following a single oral administration of PIN®-encapsulated TGFβ and ATRA in male rats, when compared to intravenous administration.

For data set [1], the system named is DSS-induced colitis in C57Black6 mice. In words: Dextran sodium sulphate-induced colitis. The format is in vivo, mouse. The source says: Animals: Mice 6-8-weeks old (C57Black6 mice [males: n=6; females: n=6; 12 per group]) were purchased from Harlan Nossan, San Pietro al Natisone, Udine, Italy, and housed in a vivarium under pathogen-free conditions at the Department of Biomedical Sciences in the School of Medicine at the University of Catania [Catania, Italy]. The mice were kept under standard laboratory conditions with free access to food and water. They were allowed to adapt for 1 week before starting the study. The care and use of laboratory animals was in accordance with a University of Catania IACUC-approved animal use protocol.
Colitis was induced with 3% dextran sodium sulphate [50 kDa; Sigma-Aldrich] in drinking water for 4 days. The first treatment was given 24 h before induction of colitis [Day −1] and continued every other day for 6 days.
Disease score, SAA levels and histological analysis were performed as above.
To more broadly test the ability of oral TGFβ/ATRA-loaded microspheres to ameliorate IBD, a second model, the DSS-induced colitis model, was employed. Acute colitis was induced in C57Black6 mice [equal numbers of males and females, […]] with 3% DSS[50 kDa] in drinking water for 4 days. […] Mice were monitored daily for overall disease score and weight loss. At the end of 7 days, animals were sacrificed, sera taken and colons harvested, weighed, and measured on Day 7 [24 h after final treatment]. […] SAA levels, colon weight-to-length ratios, and histology scores determined. […] Mice were sacrificed 7 days after first treatment and levels of SAA determined [FIG. 10C]. […] The colons of sacrificed mice were also analyzed for colon weight-to-length ratio [FIG. 10D]. […] Next, ascending, transverse, and descending colon from naïve C57Black6 [no disease], untreated, TGFβ/ATRA-treated, and control [fed blank particles] mice were fixed in 10% formalin, embedded in paraffin, sectioned [5 μm] and stained with H & E. Five randomly-selected sections from each mouse were scored [Table 2] for disease severity. […]

We go through three molecules from patent US20170035847A1, “COMPOSITIONS AND METHODS FOR TREATING INFLAMMATION-ASSOCIATED DISORDERS OF THE GASTROINTESTINAL TRACT” (TherapyX, Inc., priority 2015, published 2017).

For orientation: AUC means concentration integrated over time. A lower AUC goes with low exposure. As usually defined, the half-life is how long it takes for the measured level to halve. The low end stands for rapid decline, the high end for slow decline. In “in vivo” (male, 1.6 mg/kg), `CC1=C(/C=C/C(C)=C/C=C/C(C)=C/C(=O)O)C(C)(C)CCC1` [ATRA, all-trans retinoic acid] came in with an AUC of 3.5 µg·h/mL and a half-life of 34 min.

For the molecule `O=C(O)c1cc(/N=N/c2ccc(S(=O)(=O)Nc3ccccn3)cc2)ccc1O` [sulphasalazine], the “SAA levels, difference to no treatment” value in data set [1] (Day 7, TGFβ/ATRA 10 and 20 μg, sulphasalazine 50 mg/kg daily) was “significant”. In data set [1] (Day 7, control groups almost 40 mg/cm, p<0.01), the colon weight-to-length ratio came out at 35 mg/cm. Besides, the weight loss entry in data set [1] (TGFβ/ATRA 10 and 20 μg every other day, sulphasalazine 50 mg/kg daily oral for 7 days) was “neither sulphasalazine nor TGFβ/ATRA treatment was able to reduce weight loss”.

On to “TGFβ: soluble unencapsulated protein, transforming growth factor β; human recombinant TGFβ (Peprotech)”, for which, in the data set “in vivo” (0.04 mg/kg), the “Area under the curve [AUC]” value is 0.01 µg·h/mL and the t1/2 came out at 5 min.
